Patent publication US11517617B2, “Methods and compositions for preventing influenza infection” (THE UNIVERSITY OF MELBOURNE, priority 2017, dated 2022)

Test system: memory CD8^+ T cells within PBMCs
Format: cell-based, human

Row | Sequence | cross-reactivity of CD8^+ T cells after in vitro expansion with the peptide | recognition of IBV-derived variant by IAV-expanded CD8^+ T cells
1 | YEDLRVLSA (Influenza B virus) [BNP394-401] | could not expand CD8^+ T cells | to a lesser extent
2 | FEDLRVLSA (Influenza A virus) [NP338-345] | recognizing both IAV- and IBV-derived peptides | 
